Results taken from patent US12071477B2, “Anti-folate receptor alpha antibody conjugated with hemiasterlins” (SUTRO BIOPHARMA, INC., priority 2017, dated 2024).
Square brackets hold non-standard residues; d marks the D form. Peptide text beside a SMILES is read from it. * marks the point of attachment. Dolaproine = CO[C@@H]([C@@H]1CCCN1)[C@@H](C)C(=O)O; Dil = CC[C@H](C)[C@H](NC)[C@@H](CC(=O)O)OC; X1 = C[C@@H](N*)[C@@H](O)c1ccccc1; NMeV = CN[C@H](C(=O)O)C(C)C

Columns and labels:
[1] = system: cell lines tested (Igrov1, A549 and others); assay: In vitro cytotoxic activity of free drugs, various cell lines; assay type: cell-based; settings: in vitro cytotoxicity studies
[2] = Body weight change in rats given free drugs; assay type: in vivo, rat; settings: free drug (I): two doses (0.4, 1 mg/kg); free drug (II): 0.4 mg/kg
[3] = system: MES-SA/MX2 cells (P-glycoprotein); assay: Free drug cell killing on PgP overexpressing MES-SA/MX2 cells with or without PgP inhibitor GF120918; assay type: cell-based
Text: (§1) To evaluate if free drug (I) is specifically a substrate of P-glycoprotein (PgP), which is responsible for cisplatin-resistance in some of the ovarian cancer cell lines (Stordal et al. 2012. PLoS One 7(7)), the free drug cell killing activities were investigated on PgP overexpressing MES-SA/MX2 cell line and the parental MES-SA cells. The cell killing activity of free drug (I), free drug (II) and a control free drug (MMAE, designated “III”) on the PgP-overexpressing MES-SA/MX2 cells were reduced by different levels compared to their activity on parental MES-SA cells. The MES-SA/MX2 cells were also treated with PgP inhibitor GF120918 (5 μM) to further investigate if the observed cell killing reduction is contributed by the presence of PgP on the cell surface.

MC38-hFolRα tumors = assay: MC38-hFolRα tumor model, combination with Avelumab; assay type: in vivo; settings: ADC Molecule 4 10 or 15 mg/kg once IV; Avelumab q3dx3
Text: Results are illustrated in FIGS. 24 and 25.

[4] = Pharmacokinetic profile of free drugs in Sprague-Dawley rats; assay type: in vivo, rat
Procedure: To assess the pharmacokinetic profile of free drug (I), female Sprague-Dawley rats (mean body weight 250 g) were given either a 0.4 mg/kg or 1 mg/kg dose by IV bolus administration (N═three animal per dose level) via an indwelling jugular vein catheter. Blood samples were collected at […], 1, 2, 8, 24, 32, 48, and 72 hour post-dose. Levels of free drug (I) and (II) were measured by LC-MS/MS and non-compartmental pharmacokinetic analysis was conducted using Phoenix WinNonlin Version 6.4 (Pharsight Corporation). The PK of free drug (I) could not be estimated due to the fact that concentrations of (I) increased from 2 to 8 hours and were undetectable thereafter.

MES-SA cells = assay: Free drug cell killing on parental MES-SA cells; assay type: cell-based; settings: Homo sapiens, MEA-SA, No GF120918
Text: as §1

[5] = system: FOLR1-positive Igrov1 cells; assay: Secondary antibody cell killing assay (anti-human Fc nanobody-hemiasterlin) on Igrov1 cells; assay type: cell-based; settings: humanized 6D1 (2060) antibodies
Procedure: The internalization of the antibodies was evaluated by a secondary antibody cell killing assay on target positive cells. FOLR1-positive KB cells were obtained from ATCC, and FOLR1-positive Igrov1 cells were obtained from NIH. The cells were maintained in Ham's F-12: high glucose DMEM (50:50) (Corning, Cellgro-Mediatech) supplemented with 10% heat-inactivated fetal bovine serum (Corning, Cellgro-Mediatech, Manassas, Virginia), 1% Penicillin/Streptomycin (Corning, Cellgro-Mediatech, Manassas, Virginia) and 2 mmol/L-glutamax (Thermo Fisher Scientific, Waltham, Massachusetts). Adherent cells were washed twice with calcium and magnesium-free Hanks Balanced Salt Solution (HBSS), harvested with HYQ® TASE™ (Hyclone; Thermo Fisher Scientific, Waltham, Massachusetts) and counted by the Vi-CELL Cell Viability Analyzers (Beckman Coulter, Indianapolis, Indiana). A total of 625 cells were seeded in each well of a 384-well flat bottom white polystyrene plate. Lead antibodies were formulated at 4-fold starting concentration in the cell culture medium and filtered through Multi ScreenHTS 96-Well Filter Plates (Millipore; Billerica, Massachusetts). […] Assay plates were cultured at 37° C. in a CO2 incubator for 120 hrs before assay. For cell viability measurement, 30 μL of Cell Titer-Glog reagent (Promega Corp. Madison, WI) was added into each well, and plates were processed as per product instructions. Relative luminescence was measured on an ENVISION® plate reader (Perkin-Elmer; Waltham, MA). Relative luminescence readings were converted to percent viability using untreated cells as controls. Data was fitted with nonlinear regression analysis, using a log(inhibitor) vs. response-variable slope, 4 parameter fit with GraphPad Prism (GraphPad v 5.0, Software; San Diego, California). Data was expressed as relative cell viability (ATP content) % vs. dose of antibody.

human FOLR1-H1S = molecular target: T1, human FOLR1-H1S (Homo sapiens, UniProt P15328); assay: Biacore affinity and kinetic binding analysis; settings: humanized 6D1 (2060) antibodies
T1 construct: His (printed 'H1S', read as a misprint of HIS)
T1 sequence (P15328 25-234 limits assumed): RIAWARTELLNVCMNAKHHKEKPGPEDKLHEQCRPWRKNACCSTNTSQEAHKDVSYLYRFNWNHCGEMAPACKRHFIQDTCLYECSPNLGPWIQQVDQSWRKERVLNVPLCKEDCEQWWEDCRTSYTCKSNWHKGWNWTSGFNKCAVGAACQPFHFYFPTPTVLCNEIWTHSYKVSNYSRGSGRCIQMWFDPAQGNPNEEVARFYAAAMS
Procedure: Anti-Fc polyclonal antibodies were immobilized onto a CM5 chip (GE Life Sciences) using amine coupling chemistry (from Amine Coupling Kit, GE Life Sciences). The immobilization steps were carried out at a flow rate of 25 μL/min in 1×HBS-EP+buffer (GE Life Sciences; 10× Stock diluted before use). The sensor surfaces were activated for 7 min with a mixture of N-hydroxysuccinimide (NHS, 0.05 M) and 1-ethyl-3-(3-dimethylaminopropyl)-carbodiimide (EDC, 0.2 M). The anti-Fc polyclonal antibodies were injected over all 4 flow cells at a concentration of 25 μg/mL in 10 mM sodium acetate, pH 4.5, for 7 min. Ethanolamine (1 M, pH 8.5) was injected for 7 min to block any remaining activated groups. An average of 12,000 response units (RU) of capture antibody was immobilized on each flow cell.
Off-rate and kinetic binding experiments were performed at 25° C. using 1×HBS-EP+ buffer. Test and control antibodies were injected over the anti-Fc surface at concentrations of 5-10 μg/mL for 12 seconds at a flow rate of 10 μL/min on flow cells 2, 3 and 4, followed by a buffer wash for 30 seconds at the same flow rate. Kinetic characterization of antibody samples was carried out with a single concentration of antigen (for off-rate ranking) or a 1:2 dilution series of antigen (for kinetic characterization) and 1 injection of 0 nM antigen. […] Between each ligand capture and analyte binding cycle, regeneration was carried out using 2 injections of 10 mM glycine pH 2.0 for 30 seconds at 30 μL/min, followed by a 30 second buffer wash step.
The data were fit with the Biacore T200 Evaluation software, using a 1:1 Langmuir binding model. KD (affinity, nM) was determined as a ratio of the kinetic rate constants calculated from the fits of the association and dissociation phases.

[6] = MEA-SA/MX2, GF120918 (5 μM PgP inhibitor)

COc1cc2cc(c1Cl)N(C)C(=O)C[C@H](OC(=O)[C@H](C)N(C)C(=O)CCC(C)(C)S)[C@]1(C)O[C@H]1[C@H](C)[C@@H]1C[C@@](O)(NC(=O)O1)[C@H](OC)/C=C/C=C(/C)C2 [free drug (II)]
cytotoxic activity of released free drugs, comparison [1]: comparable cytotoxic activity | effect on body weight [2]: progressive body weight loss | EC50 [3, 6]: 1.7 nM | EC50 ([3]; MEA-SA/MX2, No GF120918): 28 nM | Span ([3]; MEA-SA/MX2, No GF120918): 100%

Avelumab: PD-L1 inhibitor Avelumab (clinical grade) [reference compound]
initial tumor response (MC38-hFolRα tumors): tumor stasis until approximately day 7

CN[C@H](C(=O)N[C@H](C(=O)N(C)[C@H](/C=C(\C)C(=O)O)C(C)C)C(C)(C)C)C(C)(C)c1cccc(N)c1 [free drug (I)]
cytotoxic activity of released free drugs, comparison [1]: comparable cytotoxic activity | effect on body weight [2]: did not have an effect on the body weight | EC50 [3, 6]: 6.4 nM | EC50 ([3]; MEA-SA/MX2, No GF120918): 50 nM | Span ([3]; MEA-SA/MX2, No GF120918): 100% | plasma level post dose ([4]; 0.4 or 1 mg/kg IV bolus): undetectable at 24 hours post dose | PK of free drug (I) in rat vs. free drug (II) ([4]; rat): Free drug (I) has faster clearance

CC[C@H](C)[C@@H]([C@@H](CC(=O)N1CCC[C@H]1[C@H](OC)[C@@H](C)C(=O)N[C@H](C)[C@@H](O)c1ccccc1)OC)N(C)C(=O)[C@@H](NC(=O)[C@@H](NC)C(C)C)C(C)C [free drug (III), monomethyl auristatin E] (H-[NMeV]V[Dil][Dolaproine]-X1; N-terminus and C-terminus assumed)
EC50 (MES-SA cells): 0.75 nM | EC50 [3, 6]: 1 nM | EC50 ([3]; MEA-SA/MX2, No GF120918): 111 nM

B1: SRP2060-A06 (antibody, V domains shown)
VH: EVQLLESGGGLVQPGGSLRLSCAFSGFSLSTFGMGVGWVRQAPGKGLEWVGHIWWDDDKYYYPALKGRFTISKDNSKNTVYLQMNSLRAEDTAVYYCGRNHFPHYYGSSHWYFDVWGQGTTVTVSS
VL: DIQMTQSPSTLSASVGDRVTITCKASQDINSYLSWYQQKPGKAPKLLIYRANRLVDGVPSRFSGSGSGTEFTLTISSLQPDDFATYYCLQYDEFPYTFGGGTKVEIK
modifications: drug conjugate; Synthetic SRP2060-A06, VH; Synthetic H6D1-LC5, VL
Igrov 2° Antibody Cell Killing, Nb-SC239 span [5]: 66%

B2: SRP2060-B01 (antibody, V domains shown)
VH: EVQLLESGGGLVQPGGSLRLSCALSGFSLSTFGMGVGWVRQATGKGLEWVSHIWWDDDKYYHPALKGRFTISKDNSKNTVHLQMNSLRAEDTAVYYCGRNHFPHYYGSSHWYFNVWGQGTTVTVSS
VL: DIQMTQSPSTLSASVGDRVTITCKASQDINSYLSWYQQKPGKAPKLLIYRANRLVDGVPSRFSGSGSGTEFTLTISSLQPDDFATYYCLQYDEFPYTFGGGTKVEIK
modifications: drug conjugate; Synthetic SRP2060-B01, VH; Synthetic H6D1-LC5, VL
Igrov 2° Antibody Cell Killing, Nb-SC239 span [5]: 76%

B3: SRP2060-E05: affinity-matured humanized 6D1 antibody, VH SEQ ID NO 364, VL H6D1-LC4 (antibody, V domains shown)
VH: EVQLLESGGGLVQPGGSLRLSCAFSGFSLSTFGMGVGWVRQAPGKGLEWVSHIWWDDDKYYHPALKGRFTVSKDNSKNTVYLQMNSLRAEDTAVYYCGRNHFPHYYGSSHWYFNVWGQGTTVTVSS
VL: EIVMTQSPATLSLSPGERATLSCKASQDINSYLSWYQQKPGQAPRLLIYRANRLVDGIPARFSGSGSGTDYTLTISSLEPEDFAVYYCLQYDEFPYTFGGGTKVEIK
modifications: drug conjugate; Synthetic SRP2060-E05, VH; Synthetic H6D1-LC4, VL
Biacore kinetics ka (human FOLR1-H1S): 541000 M⁻¹ s⁻¹ | Biacore kinetics kd (human FOLR1-H1S): 0.00158 s⁻¹ | Igrov 2° Antibody Cell Killing, Nb-SC239 span [5]: 71%

B4: SRP2060-E10: affinity-matured humanized 6D1 antibody, VH SEQ ID NO 363, VL H6D1-LC4 (antibody, V domains shown)
VH: EVQLLESGGGLVQPGGSLRLSCAFSGFSLSTFGMGVGWVRQAPGKGLEWVSHIWWDDDKYYHPALKGRFTISKDNSKNTVYLQMNSLRAEDTAVYYCGRNHFPHYYGSSHWYFNVWGQGTTVTVSS
VL: EIVMTQSPATLSLSPGERATLSCKASQDINSYLSWYQQKPGQAPRLLIYRANRLVDGIPARFSGSGSGTDYTLTISSLEPEDFAVYYCLQYDEFPYTFGGGTKVEIK
modifications: drug conjugate; Synthetic SRP2060-E10, VH; Synthetic H6D1-LC4, VL
Biacore kinetics ka (human FOLR1-H1S): 582000 M⁻¹ s⁻¹ | Biacore kinetics kd (human FOLR1-H1S): 0.0012 s⁻¹ | Igrov 2° Antibody Cell Killing, Nb-SC239 span [5]: 68%
